The source of these data is US10364245B2 (CHIESI FARMACEUTICI S.p.A., priority 2017, dated 2019).

T1 sequence (Q16539 whole entry): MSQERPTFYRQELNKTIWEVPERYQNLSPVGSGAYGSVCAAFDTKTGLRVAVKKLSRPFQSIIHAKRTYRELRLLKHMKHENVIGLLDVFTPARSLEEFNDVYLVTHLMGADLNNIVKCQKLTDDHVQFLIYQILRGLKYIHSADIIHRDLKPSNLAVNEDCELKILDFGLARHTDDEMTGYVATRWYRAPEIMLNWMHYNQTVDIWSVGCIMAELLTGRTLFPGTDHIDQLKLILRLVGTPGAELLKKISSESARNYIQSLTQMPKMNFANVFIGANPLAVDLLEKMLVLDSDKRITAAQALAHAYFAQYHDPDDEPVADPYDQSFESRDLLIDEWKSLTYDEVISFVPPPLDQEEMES

The assay concerns the target T1, p38 alpha (Homo sapiens, UniProt Q16539).
T1 construct: purchased Invitrogen PV3304
In words: P38 alpha enzyme inhibition assay (Alphascreen kinase activity assay). The assay is classed as biochemical. To be noted: 100 pM p38 alpha, 2 hours preincubation at 25° C., 250 μM ATP, ATF-2 fusion protein; read-out: p38α inhibition. Here is the method:
P38 Alpha Enzyme Inhibition Assay
The inhibitory activity of compounds was determined using an Alphascreen® (Perkin Elmer) based kinase activity assay. Kinase reactions consisted of 25 mM HEPES pH 7.5, 10 mM MgCl2, 100 μM Na3VO4, 2 mM DTT, 0.05 mg/ml Tween 20, 100 pM p38 alpha (Invitrogen, PV3304), 1% DMSO and 0.3 μg/ml ATF-2 fusion protein (New England Biolabs, 9224). Compounds were incubated under these conditions for 2 hours, at 25° C., prior to the initiation of the kinase activity by the addition of the 250 μM ATP. Reaction volumes were 20 μL. After 1 hr at 25° C. reactions were stopped by the adding 10 μL of 25 mM HEPES pH 7.5 containing 62.5 mM EDTA, 0.05% Triton X-100, 10% BSA and 0.83 ng/uL anti-phospho-ATF2 antibody (Abcam, ab28812). Detection was performed by measuring luminescence following the addition of Alphascreen Donor beads (Perkin Elmer 6765300) and Protein A Alphascreen Acceptor beads (Perkin Elmer 6760137), both at a final concentration of 20 ug/ml. IC50 values were determined from concentration-response curves.
Regarding `CN(C)CCN(C)C(=O)c1nc(NC(=O)N[C@H]2CC[C@@H](Oc3ccc4nnc(C(C)(C)C)n4c3)c3ccccc32)cc(C(C)(C)C)n1` [Example 115, 4-(tert-butyl)-6-(3-((1S,4R)-4-((3-(tert-butyl)-[1,2,4]triazolo[4,3-a]pyridin-6-yl)oxy)-1,2,3,4-tetrahydronaphthalen-1-yl)ureido)-N-(2-(dimethylamino)ethyl)-N-methylpyrimidine-2-carboxamide], the IC50 fell in the range of 1 to 10 nM.
The value for `COC(C)(C)c1nnc2ccc(O[C@@H]3CC[C@H](NC(=O)Nc4cc(C(=O)NCCN(C)C)nc(C(C)(C)C)c4)c4ccccc43)cn12` [Example 185, 6-(tert-butyl)-N-(2-(dimethylamino)ethyl)-4-(3-((1S,4R)-4-((3-(2-methoxypropan-2-yl)-[1,2,4]triazolo[4,3-a]pyridin-6-yl)oxy)-1,2,3,4-tetrahydronaphthalen-1-yl)ureido)picolinamide] was 1 to 10 nM; that for `CCN(C)C(C)(C)CNC(=O)c1nc(NC(=O)N[C@H]2CC[C@@H](Oc3ccc4nnc(C(C)(C)OC)n4c3)c3ccccc32)cc(C(C)(C)C)n1` [Example 156, 4-(tert-butyl)-N-(2-(ethyl(methyl)amino)-2-methylpropyl)-6-(3-((1S,4R)-4-((3-(2-methoxypropan-2-yl)-[1,2,4]triazolo[4,3-a]pyridin-6-yl)oxy)-1,2,3,4-tetrahydronaphthalen-1-yl)ureido)pyrimidine-2-carboxamide] was 1 to 10 nM; that for `COC1CN(CCNC(=O)c2nc(NC(=O)N[C@H]3CC[C@@H](Oc4ccc5nnc(C(C)(C)OC)n5c4)c4ccccc43)cc(C(C)(C)C)n2)C1` [Example 167, 4-(tert-butyl)-N-(2-(3-methoxyazetidin-1-yl)ethyl)-6-(3-((1S,4R)-4-((3-(2-methoxypropan-2-yl)-[1,2,4]triazolo[4,3-a]pyridin-6-yl)oxy)-1,2,3,4-tetrahydronaphthalen-1-yl)ureido)pyrimidine-2-carboxamide] was 1 to 10 nM.
The value for `CC(C)c1nc(NC(=O)N[C@H]2CC[C@@H](Oc3ccc4nnc([C@]5(C)CCCN5C)n4c3)c3ccccc32)cc(C(C)(C)C)n1` [Example 42, 1-(6-(tert-Butyl)-2-isopropylpyrimidin-4-yl)-3-((1S,4R)-4-((3-((S)-1,2-dimethylpyrrolidin-2-yl)-[1,2,4]triazolo[4,3-a]pyridin-6-yl)oxy)-1,2,3,4-tetrahydronaphthalen-1-yl)urea] was 1 to 10 nM.
As for `CN(C)CCNC(=O)c1nc(NC(=O)N[C@H]2CC[C@@H](Oc3ccc4nnc(C(=O)N5CCOCC5)n4c3)c3ccccc32)cc(C(C)(C)C)n1` [Example 71, 4-(tert-butyl)-N-(2-(dimethylamino)ethyl)-6-(3-((1S,4R)-4-((3-(morpholine-4-carbonyl)-[1,2,4]triazolo[4,3-a]pyridin-6-yl)oxy)-1,2,3,4-tetrahydronaphthalen-1-yl)ureido)pyrimidine-2-carboxamide], the IC50 lay within 1 to 10 nM.
The value for `COCCN(C)C(C)(C)CNC(=O)c1nc(NC(=O)N[C@H]2CC[C@@H](Oc3ccc4nnc(C(C)(C)OC)n4c3)c3ccccc32)cc(C(C)(C)C)n1` [Example 179, 4-(tert-butyl)-N-(2-((2-methoxyethyl)(methyl)amino)-2-methylmpropyl)-6-(3-((1S,4R)-4-((3-(2-methoxypropan-2-yl)-[1,2,4]triazolo[4,3-a]pyridin-6-yl)oxy)-1,2,3,4-tetrahydronaphthalen-1-yl)ureido)pyrimidine-2-carboxamide] was 1 to 10 nM; that for `CC(C)c1nnc2ccc(O[C@@H]3CC[C@H](NC(=O)Nc4cc(C(C)(C)C)nc(C(=O)NCCN(C)C)n4)c4ccccc43)cn12` [Example 17, 4-(tert-Butyl)-N-(2-(dimethylamino)ethyl)-6-(3-((1S,4R)-4-((3-isopropyl-[1,2,4]triazolo[4,3-a]pyridin-6-yl)oxy)-1,2,3,4-tetrahydronaphthalen-1-yl)ureido)pyrimidine-2-carboxamide] was 1 to 10 nM.
For the molecule `COCCN(C)C(C)(C)CNC(=O)c1nc(NC(=O)N[C@H]2CC[C@@H](Oc3ccc4nnc(C(C)(C)C)n4c3)c3ccccc32)cc(C(C)(C)C)n1` [Example 177, 4-(tert-butyl)-6-(3-((1S,4R)-4-((3-(tert-butyl)-[1,2,4]triazolo[4,3-a]pyridin-6-yl)oxy)-1,2,3,4-tetrahydronaphthalen-1-yl)ureido)-N-(2-((2-methoxyethyl)(methyl)-amino)-2-methylpropyl)pyrimidine-2-carboxamide], the IC50 is 1 to 10 nM.
In the case of `COC1CCN(CCNC(=O)c2cc(NC(=O)N[C@H]3CC[C@@H](Oc4ccc5nnc(C(C)(C)C)n5c4)c4ccccc43)cc(C(C)(C)C)n2)CC1` [Example 203, 6-(tert-butyl)-4-(3-((1S,4R)-4-((3-(tert-butyl)-[1,2,4]triazolo[4,3-a]pyridin-6-yl)oxy)-1,2,3,4-tetrahydronaphthalen-1-yl)ureido)-N-(2-(4-methoxypiperidin-1-yl)ethyl)picolinamide], the IC50 was 1 to 10 nM.
For `CN(CCNC(=O)c1nc(NC(=O)N[C@H]2CC[C@@H](Oc3ccc4nnc(C(C)(C)C)n4c3)c3ccccc32)cc(C(C)(C)C)n1)C1CC1` [Example 164, 4-(tert-butyl)-6-(3-((1S,4R)-4-((3-(tert-butyl)-[1,2,4]triazolo[4,3-a]pyridin-6-yl)oxy)-1,2,3,4-tetrahydronaphthalen-1-yl)ureido)-N-(2-(cyclopropyl(methyl)-amino)ethyl)pyrimidine-2-carboxamide], the IC50 fell in the range of 1 to 10 nM.
Take `CC(C)Cc1nnc2ccc(O[C@@H]3CC[C@H](NC(=O)Nc4cc(C(C)(C)C)nc(C(=O)NCCN5CCOCC5)n4)c4ccccc43)cn12` [Example 90, 4-(tert-butyl)-6-(3-((1S,4R)-4-((3-isobutyl-[1,2,4]triazolo[4,3-a]pyridin-6-yl)oxy)-1,2,3,4-tetrahydronaphthalen-1-yl)ureido)-N-(2-morpholinoethyl)-pyrimidine-2-carboxamide]: the IC50 fell in the range of 1 to 10 nM.
The value for `CCc1nc(NC(=O)N[C@H]2CC[C@@H](Oc3ccc4nnc([C@]5(C)CCCN5C)n4c3)c3ccccc32)cc(C(C)(C)C)n1` [Example 41, 1-(6-(tert-Butyl)-2-ethylpyrimidin-4-yl)-3-((1S,4R)-4-((3-((S)-1,2-dimethylpyrrolidin-2-yl)-[1,2,4]triazolo[4,3-a]pyridin-6-yl)oxy)-1,2,3,4-tetrahydronaphthalen-1-yl)urea] was 1 to 10 nM; that for `CN(C)C1(CNC(=O)c2nc(NC(=O)N[C@H]3CC[C@@H](Oc4ccc5nnc(C(C)(C)C)n5c4)c4ccccc43)cc(C(C)(C)C)n2)CCCCC1` [Example 161, 4-(tert-butyl)-6-(3-((1S,4R)-4-((3-(tert-butyl)-[1,2,4]-triazolo[4,3-a]pyridin-6-yl)oxy)-1,2,3,4-tetrahydronaphthalen-1-yl)ureido)-N-((1-(dimethylamino)-cyclohexyl)methyl)pyrimidine-2-carboxamide] was 1 to 10 nM; that for `COC(C)(C)c1nnc2ccc(O[C@@H]3CC[C@H](NC(=O)Nc4cc(C(=O)NCC(C)(C)N(C)C)nc(C(C)(C)C)c4)c4ccccc43)cn12` [Example 194, 6-(tert-butyl)-N-(2-(dimethylamino)-2-methylpropyl)-4-(3-((1S,4R)-4-((3-(2-methoxypropan-2-yl)-[1,2,4]triazolo[4,3-a]pyridin-6-yl)oxy)-1,2,3,4-tetrahydronaphthalen-1-yl)ureido)picolinamide] was 1 to 10 nM.
Then `CN(C)C1(CNC(=O)c2nc(NC(=O)N[C@H]3CC[C@@H](Oc4ccc5nnc(C(C)(C)C)n5c4)c4ccccc43)cc(C(C)(C)C)n2)CCOCC1` [Example 160, 4-(tert-butyl)-6-(3-((1S,4R)-4-((3-(tert-butyl)-[1,2,4]triazolo[4,3-a]pyridm-6-yl)oxy)-1,2,3,4-tetrahydronaphthalen-1-yl)ureido)-N-((4-(dimethylamino)-tetrahydro-2H-pyran-4-yl)methyl)pyrimidine-2-carboxamide], with 1 to 10 nM; and `COC(C)(C)c1nnc2ccc(O[C@@H]3CC[C@H](NC(=O)Nc4cc(C(C)(C)C)nc(COCCN5CCOCC5)n4)c4ccccc43)cn12` [Example 144, 1-(6-(tert-butyl)-2-((2-morpholinoethoxy)-methyl)pyrimidin-4-yl)-3-((1S,4R)-4-((3-(2-methoxypropan-2-yl)-[1,2,4]triazolo[4,3-a]pyridin-6-yl)oxy)-1,2,3,4-tetrahydronaphthalen-1-yl)urea], with 1 to 10 nM; and `CC(C)(C)c1cc(NC(=O)N[C@H]2CC[C@@H](Oc3ccc4nnc(C5(C)COC5)n4c3)c3ccccc32)nc(C(=O)NCCN2CCOCC2)n1` [Example 98, 4-(tert-butyl)-6-(3-((1S,4R)-4-((3-(3-methyloxetan-3-yl)-[1,2,4]triazolo[4,3-a]pyridin-6-yl)oxy)-1,2,3,4-tetrahydronaphthalen-1-yl)ureido)-N-(2-morpholinoethyl)-pyrimidine-2-carboxamide], with 1 to 10 nM.
For `CN(C)C1(CNC(=O)c2nc(NC(=O)N[C@H]3CC[C@@H](Oc4ccc5nnc(C(C)(C)C)n5c4)c4ccccc43)cc(C(C)(C)C)n2)CCCC1` [Example 163, 4-(tert-butyl)-6-(3-((1S,4R)-4-((3-(tert-butyl)-[1,2,4]-triazolo[4,3-a]pyridin-6-yl)oxy)-1,2,3,4-tetrahydronaphthalen-1-yl)ureido)-N-((1-(dimethylamino)-cyclopentyl)methyl)-pyrimidine-2-carboxamide], the IC50 fell in the range of 1 to 10 nM.
